According to a melting point compilation (Tetko et al.; mined from patent text by program, amines drawn as free bases though some values may be those of a salt):

First: CC(C)(C)OC(=O)NC1CCCCCC=CC2CC2(C(=O)NS(=O)(=O)C2CC2)NC(=O)C2CC(OC(=O)c3ccc4ccccc4c3)CN2C1=O (configuration not stated)
Second: CC(C)(C)OC(=O)NCC(=O)Nc1ccc(Nc2cccc3c2C(=O)c2ccccc2C3=O)cc1
The melting point of the first is lower: 156 to 158 °C for the first, 171 °C for the second.

First: CCN(CC)Cc1ccc2[nH]c(-c3ccccc3F)cc(=O)c2c1
Second: CCOc1ccc2c(c1)C(c1ccccc1Cl)C(=O)N2 (configuration not stated)
The melting point of the first is higher: 184 to 185 °C for the first, 176 to 180 °C for the second.

First: COc1ccc(C2=C(c3ccccc3)CCCc3cc(OC4CCCCO4)ccc32)cc1 (configuration not stated)
Second: CCOc1ccc(S(=O)(=O)N(Cc2ccc(C(=O)OC)cc2)[C@@H](CC)c2ccccc2)cc1
The melting point of the first is higher: 131 to 133 °C for the first, 102 to 104 °C for the second.

Compared with `O=C1OC(CNC(=S)C(F)F)CN1c1ccc(N2CCOCC2)c(F)c1` (configuration not stated), `FC(F)c1nc2ccccc2n1-c1nc(Nc2cncnc2)nc(N2CCOCC2)n1` is higher in melting point: 125 to 127 °C for the first, 290 to 292 °C for the second.

Compared with `CN1Cc2ccccc2C(Oc2ccc([N+](=O)[O-])cc2)C1` (configuration not stated), `CC1CCCN(c2ccc([N+](=O)[O-])cc2C(=O)c2ccc(Cl)cc2)C1` (configuration not stated) is lower in melting point: 142 to 143 °C for the first, 112 °C for the second.

Compared with `CCN1CCC(=O)N(c2ccccc2F)C1=S`, `CNS(=O)(=O)Cc1ccccc1Br` is lower in melting point: 101 to 104 °C for the first, 72.5 to 74 °C for the second.

First: Cc1ncnn1-c1cc(F)ccc1CNC(=O)c1nc2n(c(=O)c1OCc1ccccc1)CCN2C(C)C
Second: CO/C=C(/C(=O)OC)c1ccccc1Oc1cc(OCc2ccc([N+](=O)[O-])cc2)ncn1
The melting point of the first is higher: 158 to 159 °C for the first, 96 to 98 °C for the second.

Compared with `CCCNC(=O)C1(CCC)c2ccccc2Sc2ccccc21`, `CC(=O)c1ccc(OCc2ccccc2)cc1O` is lower in melting point: 132 to 133 °C for the first, 107 to 108 °C for the second.

First: Cc1nc(-c2ccccc2C(F)(F)F)c(CC(Cl)C(=O)O)o1 (configuration not stated)
Second: Cc1oc2ccccc2c1OC(C)(C)C(N)=O
The melting point of the first is higher: 158 to 159 °C for the first, 116 to 120 °C for the second.

First: CN1CCC2(C)c3cc(O)cc([N+](=O)[O-])c3N(C)C12 (configuration not stated)
Second: CN1C(=O)CC[C@]2(C)c3ccc(-c4cccc(F)c4F)cc3CC[C@@H]12
The melting point of the first is higher: 170 to 171 °C for the first, 147 to 148 °C for the second.

First: CC(C)C[C@H](NC(=O)[C@@H]1CCCN1C(=O)[C@@H](N)CSCc1ccccc1)C(=O)NCC(N)=O
Second: CC(C)[C@H](NC(=O)N(C)Cc1cscn1)C(=O)N[C@@H](Cc1ccccc1)[C@@H](O)C[C@H](Cc1ccccc1)NC(=O)OCc1cccnc1
The melting point of the first is higher: 130 to 134 °C for the first, 71 to 74 °C for the second.

First: COc1ccc(OC)c2c1C(C)(C)CCC2(C)C
Second: COc1cc2c(cc1OC)-c1ccc(OC)c(OC)c1C2=O
The melting point of the first is lower: 195 °C for the first, 208 to 209 °C for the second.

First: Cc1ccc(-c2ccc(C(=O)c3ccc(Cl)cc3Cl)cc2)cc1
Second: O=C(O)c1ccc(NC(=O)C(c2ccc(Cl)cc2)c2ccc(Cl)cc2)cc1
The melting point of the first is lower: 184 to 185 °C for the first, 272 to 274 °C for the second.

First: CN(C(=O)CCN1CCC(C(O)(c2ccc(F)cc2)c2ccc(F)cc2)CC1)c1ccccc1
Second: Cc1ccc(S(=O)(=O)N(NC=O)c2ccc(NC(=S)Oc3ccccc3)cc2)cc1
The melting point of the first is lower: 73 to 75 °C for the first, 195 to 196 °C for the second.

First: COC(=O)C1=C[C@@H](OC(C)C)[C@H](NC(C)=O)[C@@H](CC2CO2)C1 (some centres not stated)
Second: COC(=O)C1=NC2=COc3cc(C)ccc3N2C1C(=O)O (configuration not stated)
The melting point of the first is lower: 130 to 131 °C for the first, 176 to 177 °C for the second.

First: CC(C)(O)Cn1c(CON=C2CCCC2)nc2c(N)nc3cccnc3c21
Second: OCCOc1cc(O)ccc1-c1nc2cnccc2[nH]1
The melting point of the first is lower: 195 to 197 °C for the first, 250 °C for the second.

First: O=[N+]([O-])c1ccc(OCc2ccc(Cl)nc2)cc1F
Second: COC(OC)C(C)Nc1cc(OCc2ccccc2)ccc1[N+](=O)[O-] (configuration not stated)
The melting point of the first is higher: 174 °C for the first, 57 to 62 °C for the second.

First: C#CCOC(=O)C1=C(C)N2CCNC2=C(C(=O)OCC)C1c1cccc([N+](=O)[O-])c1 (configuration not stated)
Second: CCOC(=O)C1=C(C)NC(C)=C(C(=O)OCC)C1c1ccccc1Br
The melting point of the first is higher: 153 °C for the first, 144 to 145 °C for the second.

Compared with `COc1ccc(S(=O)(=O)N(CCC(N)=O)c2ccc(Cl)cc2Cc2c(F)cccc2F)cc1OC`, `CC(C)(O)CCOc1c(-c2ccc(S(N)(=O)=O)cc2)cnn(-c2ccc(F)c(F)c2)c1=O` is lower in melting point: 189 °C for the first, 181 °C for the second.

Compared with `O=Cc1cc(-c2cccs2)ccc1O`, `S=C=Nc1ccc2sc(-c3cccs3)nc2c1` is higher in melting point: 102 to 103 °C for the first, 147 to 149 °C for the second.

Compared with `COc1ccc([C@H](Sc2ccccc2N)[C@@H](O)C(N)=O)cc1`, `COc1ccc(C(O)CCc2ccccc2O)cc1` (configuration not stated) is higher in melting point: 110 to 112 °C for the first, 114 to 116 °C for the second.

First: Cc1cc(C)cc(-n2ncc(-c3ccc(S(C)(=O)=O)cc3)c(-c3ccc(F)cc3)c2=O)c1
Second: CC(=O)N(C)Cc1ccc(NC(=O)/C=C/c2cnn(C)c2-c2ccc(F)cc2)cc1
The melting point of the first is lower: 130 to 134 °C for the first, 192 to 193 °C for the second.

First: COc1cccc2c1C(NC1=Nc3ccc(Nc4nnc(C)o4)cc3CO1)CC2 (configuration not stated)
Second: COc1ccc2c(c1OC)Oc1cccc3cncc-2c13
The melting point of the first is lower: 162 °C for the first, 195 to 196 °C for the second.

First: OCC1(c2nn(Cc3ccccc3F)c3nccnc23)CC=CO1 (configuration not stated)
Second: O=C(O)c1oc(=O)c2ncccc2c1-c1ccccc1
The melting point of the first is lower: 194 °C for the first, 288 to 290 °C for the second.

First: OCC1Cc2c(F)cccc2OC1CO (configuration not stated)
Second: NC(=NCC(F)(F)F)Nc1cnn(-c2cccc(C(=O)NCCO)c2)n1
The melting point of the first is lower: 99 to 101 °C for the first, 171 to 173 °C for the second.

Compared with `CON(C)C(=O)Nc1ccc(OCc2nc(Cl)ccc2Cl)cc1`, `CC(=O)OCC(O)(CN(C)S(=O)(=O)c1ccc(Cl)c(C)c1)c1cccc(Cl)n1` (configuration not stated) is lower in melting point: 152 to 154 °C for the first, 92 to 93 °C for the second.

First: Cc1ccc2c(c1)-c1csc(N)c1C2=O
Second: CC(C)(C)c1cccc2c1C(=O)NS2(=O)=O
The melting point of the first is lower: 157 to 159 °C for the first, 185 to 187 °C for the second.

First: COc1cc(Nc2c(C#N)cnc3cc(C#Cc4ccccn4)sc23)c(Cl)cc1Cl
Second: N#Cc1nc2ccc(Oc3ccc(C(F)(F)F)cc3Cl)cc2[nH]1
The melting point of the first is higher: 237 to 239 °C for the first, 192 °C for the second.

Compared with `CO[C@@H]1CN(CCCn2nc(Cl)ccc2=O)CC[C@@H]1NC(=O)c1cc(Cl)c(N)c2c1OCCC2` (relative stereo), `CC(=O)c1ccc(OCCN2CCN(c3cc(Cl)nnc3Cl)CC2)cc1` is lower in melting point: 150 °C for the first, 115 to 117 °C for the second.

First: BrCc1ccc(-c2nc3ccccn3n2)cc1
Second: O=C(O)c1cnc2ccc(Cc3ccccc3)cc2c1
The melting point of the first is lower: 196 °C for the first, 203 to 205 °C for the second.

Compared with `COc1cc(C=C[N+](=O)[O-])ccc1OCc1cccc2ccccc12`, `COc1ccc2ccccc2c1CC#N` is lower in melting point: 120 to 123 °C for the first, 95.2 to 95.6 °C for the second.

Compared with `CC(C)N1CC(c2nnc(Cc3ccc(F)cc3)o2)=C(O)C1=O`, `CCc1nc(CCc2ccc(NC(=O)/C=C/c3cnn(C)c3-c3ccc(F)cc3)cc2)cs1` is lower in melting point: 204 to 206 °C for the first, 190 to 191 °C for the second.

Going from `FC1(Cl)Oc2cc3nc(C(Cl)(Cl)Cl)[nH]c3cc2OC1(F)Cl` (configuration not stated) to `CN1CCC(OC(c2cccc(C#CCN)c2)c2nc3ccccc3[nH]2)CC1` (configuration not stated), the melting point falls from over 230 °C to 101 °C.

First: O=[N+]([O-])C=C1NCCN1c1ccc(Cl)nc1
Second: CC(C)(C)OC(=O)Nc1ccc(C2=CCN(C(=O)OC(C)(C)C)CC2)cc1[N+](=O)[O-]
The melting point of the first is higher: 201 °C for the first, 85 to 87 °C for the second.

First: N=C(N)Nc1nc(-c2ccccc2[N+](=O)[O-])c2cc(Cl)ccc2n1
Second: O=C(O)CNC(=O)Cc1ccc(Cl)cc1SC(=O)c1ccccc1
The melting point of the first is lower: 150 °C for the first, 158 to 159 °C for the second.

First: CCCCOc1ccc(-c2ccc([C@@]3(CC(=O)O)CCCCS3(=O)=O)s2)cc1
Second: N=C(N)NCCCCCOc1cccc2c1NC(=O)C(CC(=O)O)C2 (configuration not stated)
The melting point of the first is higher: 179 to 180 °C for the first, 126 to 131 °C for the second.

First: Clc1ccc(CSCc2ccc(Cl)cc2)cc1
Second: CC(C)c1ccc(NCc2ccc(N(C)C)cc2)cc1
The melting point of the first is lower: 42 to 44 °C for the first, 71 to 73 °C for the second.

First: CC(C#N)(Cn1c(C(F)(F)F)nc2ccccc21)NC(=O)c1ccc(OC(F)(F)F)cc1 (configuration not stated)
Second: O=C(Nc1ccncc1)c1ccc(OC(F)F)c2oc3ccc(C(F)(F)F)cc3c12
The melting point of the first is lower: 194 °C for the first, 228 °C for the second.

Compared with `C=CC[C@@H](C(=O)N[C@H](C(=O)N[C@H](C)c1ccccc1)C(C)(C)C)[C@@H]1OC(C)(C)OC1=O`, `CC(C)CCC(=O)N1C(=O)O[C@H](c2ccccc2)[C@@H]1C` is lower in melting point: 178 to 180 °C for the first, 76 to 77 °C for the second.

Compared with `COCC(COC)(Cc1ccccc1)Cc1ccccc1`, `O=C(Nc1ccccc1)N1CC2(CN1)CNN(C(=O)Nc1ccccc1)C2` is higher in melting point: 95 °C for the first, 227 °C for the second.

Compared with `CN(Cc1ccco1)C(=O)C=C1OC(C)(C)OC1=O`, `CCOC(=O)C(C)(C)NC(=O)c1cccc(C2=NC(C)(C)Cc3cc(OCC)c4c(c32)CC(C)(C)O4)c1` is higher in melting point: 83 to 86 °C for the first, 155 to 156 °C for the second.

First: CC(C)(C)OC(=O)N1CCN2C(=O)N(c3cc(Cl)cc(Cl)c3)C(=O)C2(Cc2ccc(Br)cc2)C1 (configuration not stated)
Second: CC(=O)N1CCC2(CC1)C(=O)N(CC(=O)Nc1c(C(C)C)cccc1C(C)C)C(=O)N2c1ccc(C)cc1
The melting point of the first is lower: 79.5 °C for the first, 136 to 138 °C for the second.

First: CCNC(=O)Nc1nc2cc(-c3cccnc3)cc(-c3nnc(C)o3)n2n1
Second: COC(=O)CCCc1cc2nc(OC)ccc2n1S(=O)(=O)c1ccccc1
The melting point of the first is higher: 318 to 321 °C for the first, 113 to 114 °C for the second.

First: CC(C)(C1CCCCC1)C(NC(=O)c1ccc(Cl)cc1)NC(=N[N+](=O)[O-])Nc1cccnc1 (configuration not stated)
Second: COC(=O)c1cc(N2CCCC2)c(Oc2cc(C)cc(C)c2)c(S(N)(=O)=O)c1
The melting point of the first is lower: 201 to 203 °C for the first, 208 to 209 °C for the second.

First: CN(C)CCn1c(=O)c2c3oc4ccccc4oc3c3[nH]c4cc(O)ccc4c3c2c1=O
Second: CCc1cccc(Sc2ccccc2)c1NC(=O)CC1c2ccccc2Oc2ccccc21
The melting point of the first is higher: over 360 °C for the first, 237 to 239 °C for the second.

First: Nc1ccc(CP2(=O)OCCCO2)cc1
Second: COc1ccc(C(=O)c2noc(CC(=O)O)n2)cc1
The melting point of the first is higher: 172 to 173 °C for the first, 126 to 127 °C for the second.

First: CCOC(=O)c1cn(-c2ccc(F)cc2F)c2nc(N3CCNCC3)c(F)cc2c1=O
Second: Nc1cc(-n2cc(C(=O)O)c(=O)c3cc(F)c(NCC(O)C(F)(F)F)c(Cl)c32)c(F)cc1F (configuration not stated)
The melting point of the first is higher: 208 to 211 °C for the first, 134 to 138 °C for the second.

First: CCCCCCCCOC(=O)CCc1cc(-n2nc3ccc(S(=O)(=O)c4ccccc4)cc3n2)c(O)c(C(C)(C)C)c1
Second: Clc1ccccc1-c1n[nH]cc1Br
The melting point of the first is lower: 62 to 63 °C for the first, 80 °C for the second.

Work on `C[C@@H]1N(C(=O)OC(C)(C)C)CC[C@]1(C)O` yielded a melting point of 109 to 112 °C.
